According to PMC9297976 (Journal of Applied Toxicology, 2021):

Key:
[1] = tested on: Japanese medaka (Oryzias latipes); assay: Fish Short‐Term Reproduction Assay; assay type: in vivo; details: for Fertility rate / Hepatic VTG, female / Hepatic VTG, male / Mortality / Mortality, number of dead fish / Number of fertilized eggs (per female per day) / Number of total eggs (per female per day) / SSC female (joint plates with papillary processes) / SSC male (joint plates with papillary processes): 21 d; for LOECREPRO: LOEC on reproduction (fecundity and/or fertility); for minimal effective concentration: Oryzias latipes, 504 h, read-out: LOECmVTG; for LOECTOX: lowest observed effect concentration on mortality; for GSI Female / GSI Male / HSI Female / HSI Male / Length Female / Length Male / Weight Female / Weight Male: completion of exposure
medaka ARβ (mArβ) [2] = molecular target: T1, medaka ARβ (mArβ) (Oryzias latipes, UniProt D1MV73); assay: Medaka ARβ reporter gene assay, antagonist assay; assay type: cell-based, Japanese medaka (Oryzias latipes); details: 11‐KT spiked at 50 nM (D); MAC = 1.0 × 10^−5 M
T1 sequence (D1MV73 1-744): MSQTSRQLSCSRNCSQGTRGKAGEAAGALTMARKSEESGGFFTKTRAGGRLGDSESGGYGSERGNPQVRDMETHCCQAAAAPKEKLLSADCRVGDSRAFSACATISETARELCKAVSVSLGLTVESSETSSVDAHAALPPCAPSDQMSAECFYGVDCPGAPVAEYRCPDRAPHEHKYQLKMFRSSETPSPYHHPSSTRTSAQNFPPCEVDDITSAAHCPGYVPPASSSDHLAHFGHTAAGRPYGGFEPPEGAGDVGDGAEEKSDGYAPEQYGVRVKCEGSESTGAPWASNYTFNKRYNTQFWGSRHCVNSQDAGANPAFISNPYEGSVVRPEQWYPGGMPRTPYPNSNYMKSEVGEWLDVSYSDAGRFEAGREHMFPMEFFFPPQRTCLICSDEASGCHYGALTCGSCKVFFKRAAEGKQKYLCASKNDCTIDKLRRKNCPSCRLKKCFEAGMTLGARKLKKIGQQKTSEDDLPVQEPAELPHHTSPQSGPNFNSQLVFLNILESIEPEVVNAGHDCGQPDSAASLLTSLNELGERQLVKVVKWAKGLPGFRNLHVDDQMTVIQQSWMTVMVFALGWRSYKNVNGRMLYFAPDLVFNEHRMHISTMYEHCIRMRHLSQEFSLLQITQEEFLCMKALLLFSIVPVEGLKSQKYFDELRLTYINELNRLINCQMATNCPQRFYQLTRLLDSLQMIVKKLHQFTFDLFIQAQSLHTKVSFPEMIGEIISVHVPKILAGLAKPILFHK

medaka Esr1 (mEsr1) [3] = molecular target: T2, medaka Esr1 (mEsr1) (Oryzias latipes, UniProt P50241); assay: cell-based; design: species or system Japanese medaka (Oryzias latipes); details: for In vitro positive: Esr: mode of action in which EC50 or PC10 was obtained in RGA
T2 sequence (P50241 1-620): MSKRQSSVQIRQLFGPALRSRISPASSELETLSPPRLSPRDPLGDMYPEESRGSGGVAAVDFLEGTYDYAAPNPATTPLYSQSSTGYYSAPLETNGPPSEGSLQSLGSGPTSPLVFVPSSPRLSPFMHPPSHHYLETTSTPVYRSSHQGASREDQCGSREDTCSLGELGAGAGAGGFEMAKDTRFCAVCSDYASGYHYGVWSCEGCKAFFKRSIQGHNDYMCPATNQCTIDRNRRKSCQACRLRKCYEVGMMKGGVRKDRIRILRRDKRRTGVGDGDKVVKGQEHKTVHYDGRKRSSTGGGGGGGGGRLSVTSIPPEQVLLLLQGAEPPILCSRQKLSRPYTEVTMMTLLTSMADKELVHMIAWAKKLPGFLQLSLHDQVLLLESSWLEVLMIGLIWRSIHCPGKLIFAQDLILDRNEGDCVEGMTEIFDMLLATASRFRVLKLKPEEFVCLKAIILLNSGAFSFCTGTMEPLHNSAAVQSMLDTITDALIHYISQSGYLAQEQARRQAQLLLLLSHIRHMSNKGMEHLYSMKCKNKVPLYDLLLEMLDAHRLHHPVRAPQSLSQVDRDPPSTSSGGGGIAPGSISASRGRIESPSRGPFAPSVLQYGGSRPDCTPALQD

medaka ARβ (mArβ) [4] = molecular target: T1, medaka ARβ (mArβ); assay: Medaka ARβ reporter gene assay, agonist assay; assay type: cell-based, Japanese medaka (Oryzias latipes); details: MAC = 1.0 × 10^−5 M
medaka Esr1 (mEsr1) [5] = molecular target: T2, medaka Esr1 (mEsr1); assay: Medaka Esr1 reporter gene assay, antagonist assay; assay type: cell-based, Japanese medaka (Oryzias latipes); details: MAC = 1.0 × 10^−5 M
[6] = measured concentration 184 μg/L
[7] = measured concentration 836 μg/L
[8] = measured concentration 0.0619 μg/L
[9] = measured concentration 0.294 μg/L
[10] = measured concentration 1.30 μg/L

CC(C)COC(=O)c1ccccc1C(=O)OCC(C)C [DIBP, Diisobutyl phthalate]
Fertility rate ([1]; 35 μg/L measured): 97 ± 4.8%
Hepatic VTG, female ([1]; 35 μg/L measured): 596 ± 144 ng/mg‐liver
Hepatic VTG, male ([1]; 35 μg/L measured): 0.3 ± 0.4 ng/mg‐liver
Mortality ([1]; 35 μg/L measured): 0.0%
Mortality, number of dead fish ([1]; 35 μg/L measured): 0
Number of fertilized eggs (per female per day) ([1]; 35 μg/L measured): 23 ± 6.6
Number of total eggs (per female per day) ([1]; 35 μg/L measured): 24 ± 7.0
SSC female (joint plates with papillary processes) ([1]; 35 μg/L measured): 0 ± 0
SSC male (joint plates with papillary processes) ([1]; 35 μg/L measured): 96 ± 11
Fertility rate ([1]; 184 μg/L measured): 97 ± 3.9%
Hepatic VTG, male ([1]; 184 μg/L measured): 0.2 ± 0.1 ng/mg‐liver
Mortality ([1]; 184 μg/L measured): 0.0%
Mortality, number of dead fish ([1]; 184 μg/L measured): 0
Number of fertilized eggs (per female per day) ([1]; 184 μg/L measured): 23 ± 6.9
Number of total eggs (per female per day) ([1]; 184 μg/L measured): 24 ± 7.2
SSC female (joint plates with papillary processes) ([1]; 184 μg/L measured): 0 ± 0
SSC male (joint plates with papillary processes) ([1]; 184 μg/L measured): 96 ± 10
Hepatic VTG, female ([1]; 184 μg/L measured, sig. ↓ vs control): 404 ± 85 ng/mg‐liver
Fertility rate ([1]; 836 μg/L measured): 96 ± 5.4%
Hepatic VTG, male ([1]; 836 μg/L measured): 2.2 ± 3.2 ng/mg‐liver
Mortality ([1]; 836 μg/L measured): 0.0%
Mortality, number of dead fish ([1]; 836 μg/L measured): 0
Number of fertilized eggs (per female per day) ([1]; 836 μg/L measured): 24 ± 5.9
Number of total eggs (per female per day) ([1]; 836 μg/L measured): 25 ± 5.8
SSC female (joint plates with papillary processes) ([1]; 836 μg/L measured): 0 ± 0
SSC male (joint plates with papillary processes) ([1]; 836 μg/L measured): 97 ± 18
Hepatic VTG, female ([1]; 836 μg/L measured, sig. ↓ vs control): 421 ± 73 ng/mg‐liver
LOECREPRO [1]: ND (>836) μg/L
minimal effective concentration [1]: > 0.836 µg/mL
LOECTOX [1]: ND (>836) μg/L
GSI Female ([1]; measured concentration 35 μg/L): 13.3 ± 2.3%
GSI Male ([1]; measured concentration 35 μg/L): 1.2 ± 0.2%
HSI Female ([1]; measured concentration 35 μg/L): 6.3 ± 1.60%
HSI Male ([1]; measured concentration 35 μg/L): 2.7 ± 0.40%
Length Female ([1]; measured concentration 35 μg/L): 33.6 ± 1.5 mm
Length Male ([1]; measured concentration 35 μg/L): 31.9 ± 1.2 mm
Weight Female ([1]; measured concentration 35 μg/L): 446 ± 48 mg
Weight Male ([1]; measured concentration 35 μg/L): 335 ± 39 mg
GSI Female [1, 6]: 13.6 ± 1.9%
GSI Male [1, 6]: 1.0 ± 0.3%
HSI Female [1, 6]: 6.3 ± 0.90%
HSI Male [1, 6]: 3.1 ± 0.40%
Length Female [1, 6]: 32.6 ± 1.5 mm
Length Male [1, 6]: 31.8 ± 1.4 mm
Weight Female [1, 6]: 405 ± 52 mg
Weight Male [1, 6]: 329 ± 55 mg
GSI Female [1, 7]: 12.0 ± 2.0%
GSI Male [1, 7]: 1.2 ± 0.4%
HSI Female [1, 7]: 5.9 ± 1.30%
HSI Male [1, 7]: 3.4 ± 0.40%
Length Female [1, 7]: 32.6 ± 1.4 mm
Length Male [1, 7]: 32.4 ± 1.7 mm
Weight Female [1, 7]: 413 ± 61 mg
Weight Male [1, 7]: 348 ± 62 mg
Antagonistic activity (medaka ARβ (mArβ) [2]): NE (MAC = 1.0 × 10^−5 M)^(D)
Agonistic activity PC10 (medaka Esr1 (mEsr1) [3]): PC10 = 3.0 × 10^−6 M
In vitro positive: Esr (medaka Esr1 (mEsr1) [3]): Esr
Agonistic activity (medaka ARβ (mArβ) [4]): NE (MAC = 1.0 × 10^−5 M)
Antagonistic activity (medaka Esr1 (mEsr1) [5]; E2 spiked at 1.0 nM (B)): NE (MAC = 1.0 × 10^−5 M)^(B)

CC(C)C(C(=O)OC(C#N)c1cccc(Oc2ccccc2)c1)c1ccc(Cl)cc1 (stereo not shown) [FV, Fenvalerate]
Fertility rate ([1]; 0.0619 μg/L measured): 92 ± 3.2%
Hepatic VTG, female ([1]; 0.0619 μg/L measured): 390 ± 68 ng/mg‐liver
Hepatic VTG, male ([1]; 0.0619 μg/L measured): 0.5 ± 0.0 ng/mg‐liver
Mortality ([1]; 0.0619 μg/L measured): 0.0%
Mortality, number of dead fish ([1]; 0.0619 μg/L measured): 0
Number of fertilized eggs (per female per day) ([1]; 0.0619 μg/L measured): 18 ± 2.7
Number of total eggs (per female per day) ([1]; 0.0619 μg/L measured): 19 ± 3.6
SSC female (joint plates with papillary processes) ([1]; 0.0619 μg/L measured): 0 ± 0
SSC male (joint plates with papillary processes) ([1]; 0.0619 μg/L measured): 80 ± 5.6
Fertility rate ([1]; 0.294 μg/L measured): 93 ± 4.3%
Hepatic VTG, female ([1]; 0.294 μg/L measured): 370 ± 212 ng/mg‐liver
Hepatic VTG, male ([1]; 0.294 μg/L measured): 0.5 ± 0.0 ng/mg‐liver
Mortality ([1]; 0.294 μg/L measured): 0.0%
Mortality, number of dead fish ([1]; 0.294 μg/L measured): 0
Number of fertilized eggs (per female per day) ([1]; 0.294 μg/L measured): 20 ± 3.5
Number of total eggs (per female per day) ([1]; 0.294 μg/L measured): 21 ± 3.1
SSC female (joint plates with papillary processes) ([1]; 0.294 μg/L measured): 0 ± 0
SSC male (joint plates with papillary processes) ([1]; 0.294 μg/L measured): 88 ± 7.2
Fertility rate ([1]; 1.30 μg/L measured): 94 ± 2.8%
Hepatic VTG, female ([1]; 1.30 μg/L measured): 237 ± 152 ng/mg‐liver
Hepatic VTG, male ([1]; 1.30 μg/L measured): 0.9 ± 0.4 ng/mg‐liver
Mortality ([1]; 1.30 μg/L measured): 0.0%
Mortality, number of dead fish ([1]; 1.30 μg/L measured): 0
Number of fertilized eggs (per female per day) ([1]; 1.30 μg/L measured): 23 ± 1.7
Number of total eggs (per female per day) ([1]; 1.30 μg/L measured): 24 ± 1.8
SSC female (joint plates with papillary processes) ([1]; 1.30 μg/L measured): 0 ± 0
SSC male (joint plates with papillary processes) ([1]; 1.30 μg/L measured): 83 ± 4.8
LOECREPRO [1]: ND (>1.30) μg/L
minimal effective concentration [1]: > 0.0013 µg/mL
LOECTOX [1]: ND (>1.3) μg/L
GSI Female [1, 8]: 9.9 ± 0.7%
GSI Male [1, 8]: 0.75 ± 0.07%
HSI Female [1, 8]: 4.3 ± 0.70%
HSI Male [1, 8]: 2.7 ± 0.30%
Length Female [1, 8]: 33.5 ± 1.1 mm
Length Male [1, 8]: 33.8 ± 1.4 mm
Weight Female [1, 8]: 454 ± 36 mg
Weight Male [1, 8]: 418 ± 51 mg
GSI Female [1, 9]: 9.7 ± 0.5%
GSI Male [1, 9]: 0.67 ± 0.11%
HSI Female [1, 9]: 4.7 ± 0.40%
HSI Male [1, 9]: 2.3 ± 0.50%
Length Female [1, 9]: 34.4 ± 0.9 mm
Length Male [1, 9]: 34.0 ± 0.2 mm
Weight Female [1, 9]: 484 ± 33 mg
Weight Male [1, 9]: 422 ± 22 mg
GSI Female [1, 10]: 10.0 ± 0.1%
GSI Male [1, 10]: 0.72 ± 0.10%
HSI Female [1, 10]: 4.4 ± 0.80%
HSI Male [1, 10]: 2.5 ± 0.20%
Length Female [1, 10]: 34.1 ± 0.5 mm
Length Male [1, 10]: 33.9 ± 1.9 mm
Weight Female [1, 10]: 491 ± 33 mg
Weight Male [1, 10]: 416 ± 56 mg
Antagonistic activity (medaka ARβ (mArβ) [2]): NE (MAC = 1.0 × 10^−5 M)^(D)
EC50 (medaka Esr1 (mEsr1) [3]): 2400 nM
In vitro positive: Esr (medaka Esr1 (mEsr1) [3]): Esr
Agonistic activity (medaka ARβ (mArβ) [4]): NE (MAC = 1.0 × 10^−5 M)
Antagonistic activity (medaka Esr1 (mEsr1) [5]; E2 spiked at 0.2 nM (A)): NE (MAC = 1.0 × 10^−5 M) ^(A)
